Values after ≈ are worked out from the molar mass of the structure shown.
Legend:
[1] = cited from earlier work
[2] = heated to 230° C. under a nitrogen atmosphere; cited from earlier work
[3] = Conversion of the methanol solvate on drying; assay type: physicochemical
Description: In another embodiment the invention relates to a novel methanol solvate of Aprepitant. The methanol solvate is useful for the purification of Aprepitant.

Row | SMILES | solubility in a methanol/water mixture (2:1) [1] | conversion of polymorphic form on heating [2] | conversion of solid form on drying [3]
1 | C[C@@H](O[C@H]1OCCN(Cc2nc(=O)[nH][nH]2)[C@H]1c1ccc(F)cc1)c1cc(C(F)(F)F)cc(C(F)(F)F)c1 [Form II of Aprepitant, 2-(R)-(1-(R)-(3,5)-bis(trifluoromethyl)-phenyl)ethoxy)-3-(S)-(4-fluoro)phenyl-4-(3-(5-oxo-1H,4H-1,2,4-triazolo)methylmorpholine] | about 1.3±0.2 mg/ml | converts to form I | –
2 | C[C@@H](O[C@H]1OCCN(Cc2nc(=O)[nH][nH]2)[C@H]1c1ccc(F)cc1)c1cc(C(F)(F)F)cc(C(F)(F)F)c1 [form I, 2-(R)-(1-(R)-(3,5)-bis(trifluoromethyl)-phenyl)ethoxy)-3-(S)-(4-fluoro)phenyl-4-(3-(5-oxo-1H,4H-1,2,4-triazolo)methylmorpholine] | 900 ± 100 µg/mL (≈ 1680 µM) | – | –
3 | CO.C[C@@H](O[C@H]1OCCN(Cc2nc(=O)[nH][nH]2)[C@H]1c1ccc(F)cc1)c1cc(C(F)(F)F)cc(C(F)(F)F)c1 [methanol solvate, Methanol solvate of 2-(R)-(1-(R)-(3,5)-bis(trifluoromethyl)-phenyl)ethoxy)-3-(S)-(4-fluoro)phenyl-4-(3-(5-oxo-1H,4H-1,2,4-triazolo)methylmorpholine] | – | – | converts to form I of Aprepitant on drying

Source: patent US20110015191A1, “ORGANIC COMPOUNDS” (SANDOZ AG, priority 2007, published 2011)
